Earlier results in patent US20080139510A1, “Treatment of migraine headaches with sublingual amino acids” (priority 2006, published 2008).

Test system: migraine attack
Settings: oral administration, tablet or capsule

SMILES: N[C@@H](Cc1c[nH]c2ccc(O)cc12)C(=O)O [5-HTP, 5-hydroxytryptophan]
- aborting or significantly mitigating pain after onset of migraine attack: ineffective
